# Assay results from patent US8952024B2, “Herbicidal pyrimidone derivatives” (E I du Pont de Nemours and Company, priority 2009, dated 2015).
# Read-outs that look alike come from different tables or passages of the source.
# Legend:
# Test in all cases: Test B pre-/postemergence plant response
# Type in all cases: in vivo
# [1] = system: johnsongrass (Sorghum halepense); settings: Sorghum halepense, read-out: Plant response rating, Johnsongrass; for pest or weed control at 31 g/ha: 31 g ai/ha; for pest or weed control at 62 g/ha: 62 g ai/ha; for pest or weed control at 125 g/ha: 125 g ai/ha
# Outline: (§1)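 Visual injury, 0–100 scale (100 = complete control), rated against controls after 13 to 15 days in greenhouse. Pre-emergence: seeds in loam/sand soil, treated at planting. Post-emergence: 1- to 4-leaf plants (2 to 18 cm) in peat/vermiculite medium. Compounds formulated in non-phytotoxic solvent with surfactant.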
# kochia (Kochia scoparia) = settings: for pest or weed control at 31 g/ha: 31 g ai/ha; for pest or weed control at 62 g/ha: 62 g ai/ha; for pest or weed control at 125 g/ha: 125 g ai/ha
# Outline: as §1
# [2] = system: large crabgrass (Digitaria sanguinalis); settings: for pest or weed control at 31 g/ha: 31 g ai/ha; for pest or weed control at 62 g/ha: 62 g ai/ha; for pest or weed control at 125 g/ha: 125 g ai/ha
# Outline: as §1
# [3] = system: morningglory (Ipomoea coccinea); settings: for pest or weed control at 125 g/ha: 125 g ai/ha
# Outline: as §1
# [4] = system: ragweed (common ragweed, Ambrosia elatior); settings: for pest or weed control at 31 g/ha: 31 g ai/ha; for pest or weed control at 62 g/ha: 62 g ai/ha; for pest or weed control at 125 g/ha: 125 g ai/ha
# Outline: as §1
# soybean (Glycine max) = settings: for plant injury at 31 g/ha: 31 g ai/ha; for plant injury at 62 g/ha: 62 g ai/ha; for plant injury at 125 g/ha: 125 g ai/ha
# Outline: as §1
# [5] = system: velvetleaf (Abutilon theophrasti); settings: for pest or weed control at 31 g/ha: 31 g ai/ha; for pest or weed control at 62 g/ha: 62 g ai/ha; for pest or weed control at 125 g/ha: 125 g ai/ha
# Outline: as §1
# [6] = pre-emergence, Preemergence, scale 0 to 100 (0 no effect, 100 complete control)
# [7] = Bassia scoparia, pre-emergence, Preemergence, scale 0 to 100 (0 no effect, 100 complete control), read-out: Plant response rating, Kochia
# [8] = Preemergence, 250 g ai/ha, 0 to 100 scale
# [9] = Digitaria sanguinalis, pre-emergence, Preemergence, scale 0 to 100 (0 no effect, 100 complete control), read-out: Plant response rating, Crabgrass, Large
# [10] = Ambrosia artemisiifolia, pre-emergence, 360 h, Preemergence, scale 0 to 100 (0 no effect, 100 complete control), read-out: Plant response rating, Ragweed
# [11] = Glycine max, pre-emergence, Preemergence, scale 0 to 100 (0 no effect, 100 complete control), read-out: Plant response rating, Soybean
# [12] = Abutilon theophrasti, pre-emergence, 360 h, Preemergence, scale 0 to 100 (0 no effect, 100 complete control), read-out: Plant response rating, Velvetleaf
smiles,measurement,setting,value
"COCCn1c(-c2cc(F)cc(F)c2)ncc(C(=O)C2=C(O)C3CCC(C3)C2=O)c1=O (centres unmarked) [Compound 243, 2-(3,5-difluorophenyl)-5-[(2-hydroxy-4-oxobicyclo[3.2.1]oct-2-en-3-yl)carbonyl]-3-(2-methoxyethyl)-4(3H)-pyrimidinone]",pest or weed control at 31 g/ha,"[1]; post-emergence, Postemergence, 0 to 100 scale (0 no effect, 100 complete control)",100%
same,pest or weed control at 62 g/ha,"[1]; post-emergence, Postemergence, scale 0 to 100 (0 no effect, 100 complete control)",100%
same,pest or weed control at 125 g/ha,"[1]; post-emergence, Postemergence, scale 0 (no effect) to 100 (complete control), 13 to 15 days",100%
same,pest or weed control at 250 g/ha,"[1]; post-emergence, Postemergence, 250 g ai/ha, scale 0 to 100 (0 no effect, 100 complete control), 13 to 15 days",100%
same,pest or weed control at 31 g/ha,[1]; [6],70%
same,pest or weed control at 62 g/ha,[1]; [6],95%
same,pest or weed control at 125 g/ha,"[1]; pre-emergence, Preemergence, scale 0 to 100, 0 no effect, 100 complete control",95%
same,pest or weed control at 31 g/ha,"kochia (Kochia scoparia); Bassia scoparia, post-emergence, Postemergence, 0 to 100 scale (0 no effect, 100 complete control), read-out: Plant response rating, Kochia",85%
same,pest or weed control at 62 g/ha,"kochia (Kochia scoparia); Bassia scoparia, post-emergence, Postemergence, scale 0 to 100 (0 no effect, 100 complete control), read-out: Plant response rating, Kochia",95%
same,pest or weed control at 125 g/ha,"kochia (Kochia scoparia); Bassia scoparia, post-emergence, Postemergence, scale 0 (no effect) to 100 (complete control), 13 to 15 days, read-out: Plant response rating, Kochia",100%
same,pest or weed control at 250 g/ha,"kochia (Kochia scoparia); Bassia scoparia, post-emergence, Postemergence, 250 g ai/ha, scale 0 to 100 (0 no effect, 100 complete control), 13 to 15 days, read-out: Plant response rating, Kochia",100%
same,pest or weed control at 31 g/ha,kochia (Kochia scoparia); [7],15%
same,pest or weed control at 62 g/ha,kochia (Kochia scoparia); [7],20%
same,pest or weed control at 125 g/ha,"kochia (Kochia scoparia); Bassia scoparia, pre-emergence, Preemergence, scale 0 to 100, 0 no effect, 100 complete control, read-out: Plant response rating, Kochia",90%
same,Kochia plant response rating,kochia (Kochia scoparia); [8],100
same,pest or weed control at 31 g/ha,"[2]; Digitaria sanguinalis, post-emergence, Postemergence, 0 to 100 scale (0 no effect, 100 complete control), read-out: Plant response rating, Crabgrass, Large",95%
same,pest or weed control at 62 g/ha,"[2]; Digitaria sanguinalis, post-emergence, Postemergence, scale 0 to 100 (0 no effect, 100 complete control), read-out: Plant response rating, Crabgrass, Large",100%
same,pest or weed control at 125 g/ha,"[2]; Digitaria sanguinalis, post-emergence, Postemergence, scale 0 (no effect) to 100 (complete control), 13 to 15 days, read-out: Plant response rating, Crabgrass, Large",100%
same,pest or weed control at 250 g/ha,"[2]; Digitaria sanguinalis, post-emergence, Postemergence, 250 g ai/ha, scale 0 to 100 (0 no effect, 100 complete control), 13 to 15 days, read-out: Plant response rating, Crabgrass, Large",100%
same,pest or weed control at 31 g/ha,[2]; [9],100%
same,pest or weed control at 62 g/ha,[2]; [9],100%
same,pest or weed control at 125 g/ha,"[2]; Digitaria sanguinalis, pre-emergence, Preemergence, scale 0 to 100, 0 no effect, 100 complete control, read-out: Plant response rating, Crabgrass, Large",100%
same,"Crabgrass, Large plant response rating",[2]; [8],100
same,pest or weed control at 31 g/ha,"[3]; Ipomoea, post-emergence, Postemergence, 31 g ai/ha, 0 to 100 scale (0 no effect, 100 complete control), read-out: Plant response rating, Morningglory",95%
same,pest or weed control at 62 g/ha,"[3]; Ipomoea, post-emergence, Postemergence, 62 g ai/ha, scale 0 to 100 (0 no effect, 100 complete control), read-out: Plant response rating, Morningglory",100%
same,pest or weed control at 125 g/ha,"[3]; Ipomoea, post-emergence, Postemergence, scale 0 (no effect) to 100 (complete control), 13 to 15 days, read-out: Plant response rating, Morningglory",100%
same,pest or weed control at 250 g/ha,"[3]; Ipomoea, post-emergence, Postemergence, 250 g ai/ha, scale 0 to 100 (0 no effect, 100 complete control), 13 to 15 days, read-out: Plant response rating, Morningglory",100%
same,pest or weed control at 125 g/ha,"[3]; Ipomoea, pre-emergence, Preemergence, scale 0 to 100, 0 no effect, 100 complete control, read-out: Plant response rating, Morningglory",98%
same,Morningglory plant response rating,[3]; [8],100
same,pest or weed control at 31 g/ha,"[4]; Ambrosia artemisiifolia, post-emergence, 360 h, Postemergence, 0 to 100 scale (0 no effect, 100 complete control), read-out: Plant response rating, Ragweed",90%
same,pest or weed control at 62 g/ha,"[4]; Ambrosia artemisiifolia, post-emergence, 360 h, Postemergence, scale 0 to 100 (0 no effect, 100 complete control), read-out: Plant response rating, Ragweed",95%
same,pest or weed control at 125 g/ha,"[4]; Ambrosia artemisiifolia, post-emergence, 360 h, Postemergence, scale 0 (no effect) to 100 (complete control), 13 to 15 days, read-out: Plant response rating, Ragweed",98%
same,pest or weed control at 250 g/ha,"[4]; Ambrosia artemisiifolia, post-emergence, 360 h, Postemergence, 250 g ai/ha, scale 0 to 100 (0 no effect, 100 complete control), 13 to 15 days, read-out: Plant response rating, Ragweed",100%
same,pest or weed control at 31 g/ha,[4]; [10],85%
same,pest or weed control at 62 g/ha,[4]; [10],95%
same,pest or weed control at 125 g/ha,"[4]; Ambrosia artemisiifolia, pre-emergence, 360 h, Preemergence, scale 0 to 100, 0 no effect, 100 complete control, read-out: Plant response rating, Ragweed",98%
same,Ragweed plant response rating,[4]; [8],98
same,plant injury at 31 g/ha,"soybean (Glycine max); Glycine max, post-emergence, Postemergence, 0 to 100 scale (0 no effect, 100 complete control), read-out: Plant response rating, Soybean",95%
same,plant injury at 62 g/ha,"soybean (Glycine max); Glycine max, post-emergence, Postemergence, scale 0 to 100 (0 no effect, 100 complete control), read-out: Plant response rating, Soybean",98%
same,plant injury at 125 g/ha,"soybean (Glycine max); Glycine max, post-emergence, Postemergence, scale 0 (no effect) to 100 (complete control), 13 to 15 days, read-out: Plant response rating, Soybean",100%
same,plant injury at 250 g/ha,"soybean (Glycine max); Glycine max, post-emergence, Postemergence, 250 g ai/ha, scale 0 to 100 (0 no effect, 100 complete control), 13 to 15 days, read-out: Plant response rating, Soybean",100%
same,plant injury at 31 g/ha,soybean (Glycine max); [11],65%
same,plant injury at 62 g/ha,soybean (Glycine max); [11],75%
same,plant injury at 125 g/ha,"soybean (Glycine max); Glycine max, pre-emergence, Preemergence, scale 0 to 100, 0 no effect, 100 complete control, read-out: Plant response rating, Soybean",85%
same,Soybean plant response rating,soybean (Glycine max); [8],95
same,pest or weed control at 31 g/ha,"[5]; Abutilon theophrasti, post-emergence, 360 h, Postemergence, 0 to 100 scale (0 no effect, 100 complete control), read-out: Plant response rating, Velvetleaf",100%
same,pest or weed control at 62 g/ha,"[5]; Abutilon theophrasti, post-emergence, 360 h, Postemergence, scale 0 to 100 (0 no effect, 100 complete control), read-out: Plant response rating, Velvetleaf",100%
same,pest or weed control at 125 g/ha,"[5]; Abutilon theophrasti, post-emergence, 360 h, Postemergence, scale 0 (no effect) to 100 (complete control), 13 to 15 days, read-out: Plant response rating, Velvetleaf",100%
same,pest or weed control at 250 g/ha,"[5]; Abutilon theophrasti, post-emergence, 360 h, Postemergence, 250 g ai/ha, scale 0 to 100 (0 no effect, 100 complete control), 13 to 15 days, read-out: Plant response rating, Velvetleaf",100%
same,pest or weed control at 31 g/ha,[5]; [12],100%
same,pest or weed control at 62 g/ha,[5]; [12],100%
same,pest or weed control at 125 g/ha,"[5]; Abutilon theophrasti, pre-emergence, 360 h, Preemergence, scale 0 to 100, 0 no effect, 100 complete control, read-out: Plant response rating, Velvetleaf",100%
same,Velvetleaf plant response rating,[5]; [8],100
